From patent publication US4596675A, “Novel thiopeptolide substrates for vertebrate collagenase” (Monsanto Company, priority 1985, dated 1986)
Non-standard residues stand in square brackets, D forms with d. Residues, ends and D or L forms follow the SMILES beside them. *: point of attachment. Dnp = O=[N+]([O-])c1ccc(*)c([N+](=O)[O-])c1

Biological target: T1, collagenase (Homo sapiens, UniProt P03956)
T1 construct: endogenous in cells; host or cells: normal human skin fibroblasts (culture medium)
T1 sequence (P03956 100-469): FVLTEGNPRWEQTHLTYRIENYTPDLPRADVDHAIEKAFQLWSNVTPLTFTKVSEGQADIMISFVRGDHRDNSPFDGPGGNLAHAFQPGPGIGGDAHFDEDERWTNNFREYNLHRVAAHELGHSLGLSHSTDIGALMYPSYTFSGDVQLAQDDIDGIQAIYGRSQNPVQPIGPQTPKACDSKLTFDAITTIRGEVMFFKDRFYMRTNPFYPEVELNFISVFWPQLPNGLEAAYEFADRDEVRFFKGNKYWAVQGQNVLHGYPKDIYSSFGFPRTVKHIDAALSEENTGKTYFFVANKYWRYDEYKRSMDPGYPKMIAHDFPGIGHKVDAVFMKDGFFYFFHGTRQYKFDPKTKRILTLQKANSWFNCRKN
Test: Rate of hydrolysis of substrates by collagenase, assayed by HPLC
Type: biochemical
Conditions: Comparison of Substrate; assayed by HPLC (no chromophore)
Protocol: The following Table I sets forth the relative rates of hydrolysis in the above spectrophotometric assay using the above thiopeptolides as substrates in comparison to the rates of hydrolysis assayed by High Performance Liquid Chromatography (HPLC) of two commercially available substrates for collagenase and two other substrates described in copending Application Ser. No. 450,318, cited hereinbefore.

Structure (SMILES) | Relative Rate (of hydrolysis)
CCOC(=O)CNC(=O)[C@H](C)NC(=O)[C@H](CC(C)C)NC(=O)CNC(=O)[C@H](CC(C)C)NC(=O)[C@@H]1CCCN1C(C)=O [Ac--Pro--Leu--Gly--Leu--Ala--Gly--OC2 H5] (Ac-PLGLAG-OEt) | 110
CCOC(=O)CNC(=O)[C@H](CC(C)C)NC(=O)[C@H](CC(C)C)NC(=O)CNC(=O)[C@H](CC(C)C)NC(=O)[C@@H]1CCCN1C(C)=O [Ac--Pro--Leu--Gly--Leu--Leu--Gly--OC2 H5] (Ac-PLGLLG-OEt) | 250
CC[C@H](C)[C@H](NC(=O)CNC(=O)[C@H](CCC(N)=O)NC(=O)[C@@H]1CCCN1c1ccc([N+](=O)[O-])cc1[N+](=O)[O-])C(=O)N[C@@H](C)C(=O)NCC(=O)N[C@@H](CCC(N)=O)C(=O)N[C@H](CCCNC(=N)N)C(=O)O [DNP-Pro-Gln-Gly-Ile-Ala-Gly-Gln-D-Arg-OH] (Dnp-PQGIAGQ[dR]-OH) | 5
CC[C@H](C)[C@H](NC(=O)CNC(=O)[C@H](CC(C)C)NC(=O)[C@@H]1CCCN1c1ccc([N+](=O)[O-])cc1[N+](=O)[O-])C(=O)N[C@@H](C)C(=O)NCC(=O)N[C@@H](CCCNC(=N)N)C(N)=O [DNP-Pro-Leu-Gly-Ile-Ala-Gly-Arg-NH2] (Dnp-PLGIAGR-NH2) | 25
